These results are taken from patent US20120152149A1, “USE OF 1,3-DIOLS AS BIOCIDES” (BASF SE, priority 2009, published 2012).

Holding throughout (assay type): cell-based
For assay [1], the system named is P. aeruginosa ATCC 15442. The experiment in a line: Suspension test EN 1040, bactericidal activity. The settings on record: 1000 ppm of active substance. The protocol:
The bactericidal activity of the substances of this invention was carried out in a suspension test corresponding to the European standard EN 1040 and compared with the activities of customary commercial products. For this, only relatively small modifications were made. The substances of the formula (1) were dissolved in water or ethanol to give a 1% strength stock solution. For determining the bactericidal activities, the test mixtures were selected such that 1000 ppm of active substance was present in an aqueous solution. The procedure was the same with the comparison samples. For the results shown in table 2, the test mixtures were inoculated with the following bacterial strains such that the stated germ densities were present in the test mixtures. P. aeruginosa ATCC 15442 1−2×10^7 CFU/ml The test mixtures were incubated at room temperature (22° C.+/−2° C.). After defined contact times, aliquots of 1 ml were taken in order to determine the surviving germ count. For the deactivation of the microbicidal activity of the diols, the aliquots were diluted in 1:10 dilution steps in a solution of TS broth with 10% Tween, 3% lecithin, 0.1% histidines and 0.5% sodium thiosulfate and the 10^−2 and 10^−3 dilution stages were used for determining the surviving germ count. For this purpose, corresponding aliquots were plated out on Caso medium with inhibitor (Merck) and incubated at 37° C. for 24 h. The ascertained surviving germ counts were in each case compared with a mixture containing water (water control) by determining the logarithmic reduction in the surviving germ counts based on the water control.

Assay [2] concerns P. aeruginosa ATCC 15442. The experiment in a line: Preservation stress test, example formulation 1 (standard emulsion O/W). The settings on record: 1% active substance. Put shortly: (§1)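 O/W emulsion containing 1% diol (water as placebo), inoculated individually or as mixed culture at 10^5-10^6 CFU/g and held 28 d at 20-25° C. Surviving counts at 0, 2, 7, 14 and 28 d after dilution in neutralising phosphate buffer pH 7.4 with Tween 80/lecithin; expressed as log reduction from initial count.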

Assay [3] relates to E. coli ATCC 10536. The assay is described as above. The settings on record: 1% active substance. Summed up:
as §1

In assay [4] the test system is S. aureus ATCC 6538. Described as above. The settings on record: 1% active substance. Summed up:
as §1

In assay [5] the test system is C. albicans ATCC 10231. In words: Suspension test EN 1275, activity against yeasts. The settings on record: 1000 ppm of active substance. The protocol: The fungicidal activity was determined in accordance with European standard EN 1275 and compared with the activities of customary commercial products, with only slight modifications having been carried out. The substances of the formula (1) were dissolved in water or ethanol to give a 1% strength stock solution. To determine the microbicidal activities of the diols against yeasts, the test mixtures were selected such that 1000 ppm of active substance was present in an aqueous solution. For the results shown in table 2, the test mixtures were inoculated with the following yeast and mold strains such that the stated germ densities were present in the test mixtures. C. albicans ATCC 10231 1−2×10^6 CFU/ml The test mixtures were incubated at room temperature (22° C.+/−2° C.). After defined contact times, aliquots of 1 ml were taken in order to determine the surviving germ count. For the deactivation of the microbicidal activity of the diols, the aliquots were diluted in 1:10 dilution steps in a solution of Sabouraud medium with 10% Tween, 3% lecithin, 0.1% histidines and 0.5% sodium thiosulfate and the 10^−2, 10^−3 and 10^−4 dilution stages were used for determining the surviving germ count. For this, corresponding aliquots were plated out on Sabouraud medium with inhibitor and incubated at 30° C. for 2 d. The ascertained surviving germ counts were in each case compared with a mixture containing water (water control) by determining the logarithmic reduction in the surviving germ counts based on the water control.

As to `CCCC(O)CO` (centres unmarked) [1,2-Pentanediol, 1,2-pentanediol, reference compound], the “Microbicidal activity given as logarithmic reduction in germ count” value in assay [1] (contact time 5 min) was under 1 log. red; in assay [2] (48 h), 0 log. Red; in assay [2] (7 d), “≧3 log. Red”; in assay [2] (14 d), “≧3 log. Red”; in assay [3] (48 h), 0 log. Red; in assay [3] (7 d) it was 0 log. Red. Further, the “Microbicidal activity given as logarithmic reduction in germ count” value in assay [3] (14 d), in assay [4] (48 h), in assay [4] (7 d) and in assay [4] (14 d) was 0 log. Red in each case.

In the case of `CCCCCCCCC(C)(CO)CO` [OMPD, 2-octyl-2-methylpropane-1,3-diol], the “Microbicidal activity given as logarithmic reduction in germ count” value was over 4 log. red in assay [5] (contact time 5 min); over 4 log. red in assay [5] (contact time 30 min); over 4 log. red in assay [5] (contact time 24 h); 4.5 log. red in assay [1] (contact time 5 min); 4.7 log. red in assay [1] (contact time 30 min).

As to `CCCCCC(CO)(CO)CCC` [PPPD, 2-pentyl-2-propylpropane-1,3-diol], the “Microbicidal activity given as logarithmic reduction in germ count” value is on record as 1.7 log. red in assay [5] (contact time 5 min); over 5 log. red in assay [5] (contact time 30 min); over 5 log. red in assay [5] (contact time 24 h); 3.2 log. red in assay [1] (contact time 5 min); 3.1 log. red in assay [1] (contact time 30 min).
